pIC50: −log10 of the molar value.
system: neutrophils; assay: Neutrophil calcium flux assay (5-OXO-ETE-stimulated, Indo-1 fluorescence); assay type: cell-based; settings: 5-OXO-ETE-stimulated calcium flux
Description: After isolation, neutrophils were resuspended in PBS without calcium and Magnesium (PBS −/−) at a concentration of 5×10^6 cells/ml. 2ul of Indo-1 (1 mM) were added per ml of cells. After incubation at 37° C. for 30 minutes, cells were washed twice in PBS −/− and resuspended at 5×10^6 cells/ml in assay buffer (HBSS 1× with calcium and magnesium and […]). In a 96-well Black optical clear bottom plate 100 μL of neutrophil were dispensed to each well. After incubation at 37° C. for 5 minutes, 50 μL of assay buffer or 3× antagonist were added and incubated for 5 min in a Tecan Spark plate reader (Tecan, Morrisville, NC). Baseline was measured for 30 sec (wavelength setup: excitation: 331 nm and emission:410 nm). When baseline is stable, 50p of 5-OXO-ETE at 200 nM (4×) or HBSS was added to appropriate wells. Fluorescence was measured every 5 seconds for 30 cycles. Results are expressed as Net fluorescence (FLU minus Background and injection peak). All data were analyzed using GraphPad Prism version 9 for Windows (GraphPad, San Diego, CA).

`CC(CC(=O)O)CC(=O)c1c(CCCCCC(O)c2cccc(C#N)c2)n(C)c2ncc(Cl)cc12` (single isomer, unassigned) [Compound I-309] and `CC(CC(=O)O)CC(=O)c1c(CCCCCC(O)c2cccc(C(=O)N(C)C)c2)n(C)c2ncc(C#N)cc12` (single isomer, unassigned) [Compound I-316] cannot be ordered by pIC50: less than 6.52 for the first, less than 6.52 for the second.

Compared with `CC(CC(=O)O)CC(=O)c1c(CCCCCC(O)c2cccc(C#N)c2)n(C)c2ncc(Cl)cc12` (single isomer, unassigned) [Compound I-307], `CC(CC(=O)O)CC(=O)c1c(CCCCCC(O)c2cccc(C(=O)N(C)C)c2)n(C)c2ncc(C#N)cc12` (single isomer, unassigned) [Compound I-318] is lower in pIC50: greater than 7.00 for the first, 6.52 to 7.00 for the second.

same assay, conditions: Neutrophil, 5-OXO-ETE-stimulated calcium flux

`CC(CC(=O)O)CC(=O)c1c(CCCCCC(O)c2cccc(C#N)c2)n(C)c2ncc(Cl)cc12` (stereo not shown) [Compound I-286] and `C[C@H](CC(=O)O)CC(=O)c1c(CCCCC[C@@H](O)c2cccc(Cl)c2)n(C)c2ncc(Cl)cc12` [Compound I-107] cannot be ordered by pIC50: greater than 7.00 for the first, greater than 7.00 for the second.

First: C[C@H](CC(=O)O)CC(=O)c1c(CCCCCCC#CC2CCC2)n(C)c2ccc(Cl)cc12 [Compound I-113]
Second: C[C@H](CC(=O)O)CC(=O)c1c(CCCCCCCC#CC2CC(F)(F)C2)n(C)c2ccc(Cl)cc12 [Compound I-331]
The pIC50 of the first is lower: less than 6.52 for the first, greater than 7.00 for the second.

Compared with `C[C@@H](CC(=O)O)CC(=O)c1c(CCCCOCc2cccc(C#N)c2)n(C)c2ncc(Cl)cc12` [Compound I-213], `CC(CC(=O)O)CC(=O)c1c(CCCCOCc2cccc(F)c2)n(C)c2ncc(C#N)cc12` (stereo not shown) [Compound I-231] is higher in pIC50: less than 6.52 for the first, greater than 7.00 for the second.

`C[C@@H](CC(=O)O)CC(=O)c1c(CCCCOCc2cccc(C#N)c2)n(C)c2ccncc12` [Compound I-397] and `C[C@@H](CC(=O)O)CC(=O)c1c(CCCCOCc2cccc(OC(F)(F)F)c2)n(C)c2cnccc12` [Compound I-409] cannot be ordered by pIC50: less than 6.52 for the first, less than 6.52 for the second.

Compared with `C[C@@H](CC(=O)O)CC(=O)c1c(CCCCO[C@@H](C)c2ccccc2)n(C)c2ncc(C#N)cc12` [Compound I-431], `CC(CC(=O)O)CC(=O)c1c(CCCC(C)OCc2ccccc2)n(C)c2ncc(C#N)cc12` (stereo not shown) [Compound I-435] is higher in pIC50: less than 6.52 for the first, 6.52 to 7.00 for the second.

First: CC(CC(=O)O)CC(=O)c1c(CCCCOCc2ccc(F)c(Cl)c2)n(C)c2ncc(C#N)cc12 (stereo not shown) [Compound I-291]
Second: CC(CC(=O)O)CC(=O)c1c(CCCCOCc2cc(F)cc(F)c2)n(C)c2ncc(C#N)cc12 (stereo not shown) [Compound I-387]
The pIC50 of the first is higher: greater than 7.00 for the first, 6.52 to 7.00 for the second.

First: COc1cc(COCCCCc2c(C(=O)CC(C)CC(=O)O)c3cc(Cl)cnc3n2C)ccn1 (stereo not shown) [Compound I-446]
Second: C[C@H](CC(=O)O)CC(=O)c1c(CCCCOCc2ccccc2)n(C)c2ncc(Cl)cc12 [Compound I-99]
The pIC50 of the first is lower: less than 6.52 for the first, 6.52 to 7.00 for the second.

`C[C@H](CC(=O)O)CC(=O)c1c(CCCOCCc2cccc(Cl)c2)n(C)c2ccc(Cl)cc12` [Compound I-61] and `C[C@H](CC(=O)O)CC(=O)c1c(CCOCCNc2cccc(Cl)c2)n(C)c2ccc(Cl)cc12` [Compound I-142] cannot be ordered by pIC50: greater than 7.00 for the first, greater than 7.00 for the second.

`C[C@H](CC(=O)O)NC(=O)c1c(CCCCCCc2cccc(Cl)c2)n(C)c2ccc(Cl)cc12` [Compound I-237] and `C[C@@H](CC(=O)NO)CC(=O)c1c(CCCCCCc2cccc(Cl)c2)n(C)c2ccc(Cl)cc12` [Compound I-18] cannot be ordered by pIC50: less than 6.52 for the first, less than 6.52 for the second.

Compared with `Cn1c(CCCCCCC#CC2CC(F)(F)C2)c(C(=O)O)c2cc(Br)cnc21` [Compound I-348], `C[C@H](CC(=O)O)CC(=O)c1c(CCCCCCC#CC2CC(F)(F)C2)n(C)c2ncc(C#N)cc12` [Compound I-328] is higher in pIC50: less than 6.52 for the first, greater than 7.00 for the second.

Going from `Cn1c(CCCCCCC#CC2CC(F)(F)C2)c(C(=O)N2CC[C@H](C(=O)N[C@@H](CCC(N)=O)C(=O)O)C2)c2cc(C#N)cnc21` [Compound I-463] to `Cn1c(CCCCCCC#CC2CC(F)(F)C2)c(C(=O)N2CC[C@H](C(=O)O)C2)c2cc(C#N)cnc21` [Compound I-340], the pIC50 rises from less than 6.52 to greater than 7.00.

First: Cn1c(CCCCOCc2cccc(Cl)c2)c(C(=O)N2CC[C@H](C(=O)O)C2)c2cc(C(F)(F)F)ccc21 [Compound I-187]
Second: Cn1c(CCCCCCc2cccc(Cl)c2)c(C(=O)N2CCC[C@@H](C(=O)O)C2)c2cc(Cl)ccc21 [Compound I-156]
The pIC50 of the first is higher: 6.52 to 7.00 for the first, less than 6.52 for the second. The first is the more potent here.

Compared with `CC(CC(=O)O)CC(=O)c1c(CCCCCCc2cscn2)n(C)c2ncc(C#N)cc12` (stereo not shown) [Compound I-373], `C[C@@H](CC(=O)O)CC(=O)c1c(CCCCCOCc2ccccc2)n(C)c2ncc(C#N)cc12` [Compound I-423] is lower in pIC50: 6.52 to 7.00 for the first, less than 6.52 for the second. The first is the more potent here.

`C[C@@H](CC(=O)c1c(CCCCOCc2cccc(Cl)c2)n(C)c2ncc(Cl)cc12)Cc1nnn[nH]1` [Compound I-355] and `C[C@@H](CC(=O)c1c(CCCCCCc2cccc(Cl)c2)n(C)c2ncc(Cl)cc12)Cc1nnn[nH]1` [Compound I-84] cannot be ordered by pIC50: greater than 7.00 for the first, greater than 7.00 for the second.

Compared with `C[C@H](OCCCCc1c(C(=O)N2CC[C@H](C(=O)O)C2)c2cc(C#N)cnc2n1C)c1ccccc1` [Compound I-453], `Cn1c(CCCCCCc2cccc(Cl)c2)c(C(=O)N2CC[C@H](C(=O)O)C2)c2cc(C#N)cnc21` [Compound I-338] is higher in pIC50: less than 6.52 for the first, greater than 7.00 for the second. The second is the more potent here.

`CC(C)OCCCc1c(C(=O)C[C@H](C)CC(=O)O)c2cc(Cl)ccc2n1C` [Compound I-71] and `CC(C)C#CCCCCCc1c(C(=O)C[C@H](C)CC(=O)O)c2cc(Cl)ccc2n1C` [Compound I-114] cannot be ordered by pIC50: less than 6.52 for the first, less than 6.52 for the second.

First: C[C@@H](CC(=O)c1c(CCCCOCc2ccccc2)n(C)c2ncc(C#N)cc12)Cc1nnn[nH]1 [Compound I-359]
Second: CC[C@H](CC(=O)O)CC(=O)c1c(CCCCOCc2ccccc2)n(C)c2ncc(C#N)cc12 [Compound I-438]
The pIC50 of the first is higher: greater than 7.00 for the first, less than 6.52 for the second. The first is the more potent here.

`CC(CC(=O)O)CC(=O)c1c(CCCCCCc2cccc(Cl)c2)n(C)c2ccc(C(F)(F)F)cc12` (stereo not shown) [Compound I-58] and `C[C@H](CC(=O)O)CC(=O)c1c(CCCCCCc2ccncc2)n(C)c2ccc(Cl)cc12` [Compound I-55] cannot be ordered by pIC50: greater than 7.00 for the first, greater than 7.00 for the second.

`C[C@H](CC(=O)O)CC(=O)c1c(CCCCCNc2cccnc2)n(C)c2ncc(Cl)cc12` [Compound I-140] and `CC(=O)NCCCCCc1c(C(=O)C[C@H](C)CC(=O)O)c2cc(Cl)ccc2n1C` [Compound I-126] cannot be ordered by pIC50: less than 6.52 for the first, less than 6.52 for the second.

Compared with `CC(CC(=O)O)CC(=O)c1c(CCCCS(=O)(=O)Cc2ccccc2)n(C)c2ncc(C#N)cc12` (stereo not shown) [Compound I-428], `[2H]C([2H])([2H])n1c(CCCCOCc2ccccc2)c(C(=O)CC(C)CC(=O)O)c2cc(C#N)cnc21` (stereo not shown) [Compound I-420] is higher in pIC50: less than 6.52 for the first, greater than 7.00 for the second.

`CC(C)[C@H](NC(=O)C[C@@H](C)CC(=O)c1c(CCCCOCc2ccccc2)n(C)c2ncc(C#N)cc12)C(=O)O` [Compound I-466] and `C[C@@H](CC(=O)O)CC(=O)c1c(CCCCOCc2cccc(OC(F)(F)F)c2)n(C)c2ncc(C#N)cc12` [Compound I-390] cannot be ordered by pIC50: less than 6.52 for the first, less than 6.52 for the second.

`Cn1c(CCCCCCC#CC2CC(F)(F)C2)c(C(=O)N2CC[C@H](C(=O)NS(C)(=O)=O)C2)c2cc(C#N)cnc21` [Compound I-363] and `Cn1c(CCCCCCCC#CC2CC(F)(F)C2)c(C(=O)N2CC[C@H](C(=O)O)C2)c2cc(C#N)cnc21` [Compound I-342] cannot be ordered by pIC50: less than 6.52 for the first, less than 6.52 for the second.

`CC(CC(=O)O)CC(=O)c1c2cc(C#N)cnc2n(C)c1[C@H]1CC[C@@H](OCc2cccc(Cl)c2)CC1` (stereo partly shown) [Compound I-292] and `Cn1c(CCCCOCc2cccc(Cl)c2)c(C(=O)N2CCC[C@H](C(=O)O)C2)c2cc(C#N)cnc21` [Compound I-181] cannot be ordered by pIC50: less than 6.52 for the first, less than 6.52 for the second.

`Cn1c(CCCCOCc2cccc(Cl)c2)c(C(=O)N2CC[C@H](c3nnn[nH]3)C2)c2cc(C(F)(F)F)cnc21` [Compound I-184] and `Cn1c(CCCCCNc2cccc(Cl)c2)c(C(=O)N2CC[C@H](C(=O)O)C2)c2cc(Cl)cnc21` [Compound I-148] cannot be ordered by pIC50: less than 6.52 for the first, less than 6.52 for the second.

Compared with `CCC#CCCCCCCc1c(C(=O)C[C@H](C)CC(=O)O)c2cc(Cl)ccc2n1C` [Compound I-116], `C[C@H](CC(=O)O)CC(=O)c1c(CCCCCC#CC2CC(F)(F)C2)n(C)c2ccc(Cl)cc12` [Compound I-330] is lower in pIC50: greater than 7.00 for the first, less than 6.52 for the second. The first is the more potent here.

First: C[C@H](CC(=O)O)CC(=O)c1c(CCCCC(=O)Nc2cc(Cl)ccc2O)n(C)c2ccc(Cl)cc12 [Compound I-146]
Second: COC(=O)NCCCCCc1c(C(=O)CC(C)CC(=O)O)c2cc(Cl)ccc2n1C (stereo not shown) [Compound I-134]
The pIC50 of the first is higher: 6.52 to 7.00 for the first, less than 6.52 for the second. The first is the more potent here.

Going from `CC(=O)N(C)c1cccc(C(O)CCCCCc2c(C(=O)CC(C)CC(=O)O)c3cc(C#N)cnc3n2C)c1` (stereo not shown) [Compound I-313] to `CC(CC(=O)O)CC(=O)c1c(CCCCCCc2cccc(Cl)c2)n(C[C@@H](O)CO)c2ncc(C#N)cc12` (stereo partly shown) [Compound I-284], the pIC50 rises from less than 6.52 to greater than 7.00.

`CC(CC(=O)O)CC(=O)c1c(CCCCOCc2cncnc2)n(C)c2ncc(C#N)cc12` (stereo not shown) [Compound I-388] and `CC(CC(=O)O)CC(=O)c1c(CCCCOCc2cccc(Cl)c2)n(C[C@@H](O)CO)c2ncc(Cl)cc12` (stereo partly shown) [Compound I-376] cannot be ordered by pIC50: less than 6.52 for the first, less than 6.52 for the second.

`Cn1c(CCCCCCC#CC2CC(F)(F)C2)c(C(=O)N2CC[C@](F)(C(=O)O)C2)c2cc(C#N)cnc21` [Compound I-344] and `CC(CN(C)C(=O)c1c(CCCCCCc2cccc(Cl)c2)n(C)c2ccc(Cl)cc12)C(=O)O` (stereo not shown) [Compound I-243] cannot be ordered by pIC50: less than 6.52 for the first, less than 6.52 for the second.

First: Cn1c(-c2ccccc2Cl)cc(C(=O)N2CC[C@H](C(=O)O)C2)c1CCCCOCc1cccc(Cl)c1 [Compound I-171]
Second: C[C@H](CC(=O)O)CC(=O)c1c(CCCCCCc2cccc(Cl)c2)[nH]c2ccc(Cl)cc12 [Compound I-144]
The pIC50 of the first is lower: less than 6.52 for the first, greater than 7.00 for the second. The second is the more potent here.
